Assay results from patent US9718809B2, “Bisarylsulfonamides useful in the treatment of inflammation and cancer” (Kancera AB, priority 2011, dated 2017).
Counter-ions that a name gives are not always drawn.

tested on: F-2,6-P2 in PANC-1 cells; assay: Quantification of F-2,6-P2 (Van Schaftingen coupled enzyme assay) in PANC-1 cells; type: cell-based, human; conditions: Homo sapiens; PANC-1 cells; read-out: IC50 based on quantification of F-2,6-P2
Excerpt: A method for quantification of F-2,6-P2 has been described by Van Schaftingen et al. (1982) Eur. J. Biochem. 129, 191-5. This sensitive assay is based on the potent activation of pyrophosphate dependent phosphofructokinase-1 (PPi-PFK) from potato tubers by F-2,6-P2. The use of a series of coupled enzymes leads to a consumption of NADH (nicotinamide adenine dinucleotide) that can be followed spectrophotometrically (an updated protocol is available in Van Schaftingen, (1984) Methods of Enzymatic Analysis (Bergmeyer, H. U., ed.), 3rd edn., vol. 6, pp. 335-341, Verlag Chemie, Weinheim). A protocol for measurements in 96-well microtiter plate format is also available (Bruni et al., (1989) Anal. Biochem. 178, 324-6).
The levels of F-2,6-P2 have been determined using the van Shaftingen assay as described in the protocol below, in six different cancer cell lines endogenously expressing varying levels of the different isoforms of PFK-2/BPase-2 (MCF-7, PANC-1, NUGC-3, SW480, SW620 and MIA PaCa-2). All reagents were purchased from commercial sources or prepared in-house.
Cell line B (PANC-1, human pancreatic carcinoma cell line): PANC-1 cells (ATCC-CRL-1469), lot. no. 58564651. Cells were seeded at a concentration of ˜250 000 cells/mL in 100 μL growth medium (˜25 000 cells/well).
Growth medium (cell lines B-F): Dulbecco's Modified Eagle's Medium, DMEM, VWR, LONZ12-604F; 10% FBS, Invitrogen, 10270-106.
Starvation medium (cell lines A-F): DMEM/F12 without phenol red and glucose free, SVA, 991373; 0.25% FBS, Invitrogen, 10270-106.
Induction medium (cell lines A-F): DMEM/F12 without phenol red and glucose free, SVA, 991373; 0.25% FBS, Invitrogen, 10270-106 (same as starvation medium).
Cells were seeded in 96-well Corning Costar tissue culture plates (CLS3595, Sigma-Aldrich) using the concentrations specified above for the different cell lines A-F and incubated over night at 37° C. and 5% CO2. Row A in the plate was left empty and the cell lines added to rows B-H. Next day the growth medium was discarded and replaced with 100 μL starvation medium. The plates were incubated for 18 h at 37° C. and 5% CO2. After 18 h of starvation the cells were induced with 100 μL compound or control solutions. Compounds were either tested in two concentrations (50 μM and 10 μM) or in dose response curves starting from 50 μM. The final DMSO concentration in assay plates was 0.5%. Also a dose response curve of a reference inhibitor was included in row H on each plate. All compounds were tested in duplicate plates. Compounds (in 96 well CLS 3365, Sigma-Aldrich plates) were serial diluted in DMSO from 10 mM compound DMSO stock solutions with Janus (automated liquid handling workstation from PerkinElmer). Five μL were transferred to a Greiner deep well plate (736-0155, VWR) with 495 μL starvation medium. The final start concentration of compounds in the dilution plate was 100 μM, 1% DMSO. For compounds tested as single points, 10 mM compound solutions were diluted five fold in DMSO to 2 mM, followed by the transfer of 5 μL to separate dilution plates with 495 μL starvation medium. The final concentrations of compounds in these dilution plates were 100 or 20 μM, respectively, and final concentration of DMSO was 1%. The plates were incubated at 37° C. and 5% CO2 for 1 h, followed by the addition of 10 μL 20 mM D-glucose in starvation medium. Controls, with and without 1 mM glucose, were included in row B. The final assay volume was 210 μL per well. After 2 h of incubation at 37° C. and 5% CO2, the supernatants were discarded and the cells lysed by the addition of 25 μL 250 mM NaOH. The plates were incubated at 37° C. and 5% CO2 for 5 min followed by an addition of 75 μL MilliQ dH2O. The supernatants were further diluted with 210 μL MilliQ dH2O to a final concentration of 20 mM NaOH. 200 μL were transferred to NUNC 96-well plates (7322661, VWR) and the plates were sealed and stored at −20° C. until analysis. […]

Row | SMILES | IC50 [µM]
1 | COCCOC(=O)c1ccc(NS(=O)(=O)c2cccc(-c3ccc4c(c3)CCO4)c2)cc1O [Example 175, 2-Methoxyethyl 4-({[3-(2,3-dihydro-1-benzofuran-5-yl)phenyl]sulfonyl}amino)-2-hydroxybenzoate] | 0.7
2 | COC(=O)c1ccc(NS(=O)(=O)c2cccc(OC(F)(F)F)c2)cc1O [Example 44, Methyl 2-hydroxy-4-({[3-(trifluoromethoxy)phenyl]sulfonyl}amino)benzoate] | 5.8
3 | O=C(OCCCN1CCOCC1)c1ccc(NS(=O)(=O)c2cc(Cl)cc(Cl)c2)cc1O [Example 187, 3-Morpholin-4-ylpropyl 4-{[(3,5-dichlorophenyl)sulfonyl]amino}-2-hydroxybenzoate trifluoroacetate] | 6.8
4 | COC(=O)c1ccc(NS(=O)(=O)c2ccc(C(F)(F)F)cc2)cc1O [Example 16, Methyl 2-hydroxy-4-({[4-(trifluoromethyl)phenyl]sulfonyl}amino)benzoate] | 4.6
5 | O=C(OCCCN1CCOCC1)c1ccc(NS(=O)(=O)c2cc(Cl)c(Cl)s2)cc1O [Example 63, 3-Morpholin-4-ylpropyl 4-{[(4,5-dichlorothiophen-2-yl)sulfonyl]amino}-2-hydroxybenzoate trifluoroacetate] | 4
6 | O=C(OCCn1cccc1)c1ccc(NS(=O)(=O)c2cc(Cl)c(Cl)s2)cc1O [Example 61, 2-(1H-Pyrrol-1-yl)ethyl 4-{[(4,5-dichlorothiophen-2-yl)sulfonyl]amino}-2-hydroxybenzoate] | 0.6

The remaining lines, values ahead:

Row | IC50 [µM] | SMILES
7 | 2.4 | COC(=O)c1ccc(NS(=O)(=O)c2cccc(-c3ccc(OC(F)(F)F)cc3)c2)cc1O [Example 99, Methyl 2-hydroxy-4-({[4′-(trifluoromethoxy)biphenyl-3-yl]sulfonyl}amino)benzoate]
8 | 19 | COC(=O)c1ccc(NS(=O)(=O)c2ccc(CNC(=O)c3ccccc3)s2)cc1O [Example 41, Methyl 2-hydroxy-4-{[(5-{[(phenylcarbonyl)amino]methyl}thiophen-2-yl)sulfonyl]amino}benzoate]
9 | 5.6 | COC(=O)c1ccc(NS(=O)(=O)c2cc(C)c(Br)s2)cc1O [Example 58, Methyl 4-{[(5-bromo-4-methylthiophen-2-yl)sulfonyl]amino}-2-hydroxybenzoate]
10 | 6.7 | COC(=O)c1ccc(NS(=O)(=O)c2cccc(-c3ccncc3)c2)cc1O [Example 89, Methyl 2-hydroxy-4-{[(3-pyridin-4-ylphenyl)sulfonyl]amino}benzoate trifluoroacetate]
11 | 4.6 | COC(=O)c1ccc(NS(=O)(=O)c2cc(-c3cccnc3)c(Cl)s2)cc1O [Example 111, Methyl 4-{[(5-chloro-4-pyridin-3-ylthiophen-2-yl)sulfonyl]amino}-2-hydroxybenzoate]
12 | 7.7 | COC(=O)c1ccc(NS(=O)(=O)c2cc(-c3ccc(NS(C)(=O)=O)cc3)c(Cl)s2)cc1O [Example 108, Methyl 4-{[(5-chloro-4-{4-[(methylsulfonyl)amino]phenyl}thiophen-2-yl)sulfonyl]amino}-2-hydroxybenzoate]
13 | 1.6 | COC(=O)c1ccc(NS(=O)(=O)c2cccc(-c3ccccc3)c2)cc1O [Example 87, Methyl 4-[(biphenyl-3-ylsulfonyl)amino]-2-hydroxybenzoate]
14 | 0.8 | O=C(OCc1ccccc1)c1ccc(NS(=O)(=O)c2cc(Cl)c(Cl)s2)cc1O [Example 71, Benzyl 4-{[(4,5-dichloro-2-thienyl)sulfonyl]amino}-2-hydroxybenzoate]

same assay, conditions: at 12.5-50 μM in PANC-1 cells

Row | SMILES | inhibition (F-2,6-P2 levels) [%]
15 | COC(=O)c1ccc(NS(=O)(=O)c2ccc(C(C)(C)C)cc2)cc1O [Example 36, Methyl 4-{[(4-tert-butylphenyl)sulfonyl]amino}-2-hydroxybenzoate] | ≥ 50
16 | COC(=O)c1ccc(NS(=O)(=O)c2cccc(C(C)=O)c2)cc1O [Example 129, Methyl 4-{[(3-acetylphenyl)sulfonyl]amino}-2-hydroxybenzoate] | ≥ 50
